{"source": "patent US20170348306A1", "about": "“METHODS OF TREATING CANCER” (GLAXOSMITHKLINE LLC, priority 2011, published 2017)", "key": {"[1]": {"system": "H3K27me3 and EZH2 target genes in tumor xenografts", "test": "Pharmacodynamic study in tumor xenografts (H3K27me3/H3 ELISA, qRT-PCR)", "format": "in vivo, mice", "details": "10 days of once-daily (QD) dosing; dose-dependent", "protocol": "Following tissue homogenization, tumor tissue lysates were prepared using the Epigentek Histone Extraction kit (OP-0006). […] Cells were lysed with 0.2N HCl for 30 minutes to extract histones, the acid-insoluble portion was pelleted by centrifugation, and the supernatant was neutralized with neutralization buffer (1M Na2HPO4, pH 12.5; ActiveMotif) containing protease inhibitors (Roche). Lysates were added to Maxisorp ELISA plates (Nunc) in duplicate on each of two plates plus blocking buffer (1% BSA). […] Luminata Forte substrate (Millipore) was added 5 minutes before chemiluminescence was quantified with an EnVision multi-label plate reader (PerkinElmer). H3K27me3 levels were normalized to total H3 values and IC50 values were determined using a 4-parameter curve fit. […]\nAll studies were conducted after review by the Institutional Animal Care and Use Committee at GSK and in accordance with the GSK Policy on the Care, Welfare and Treatment of Laboratory Animals. […] Tumors were measured with calipers, block randomized according to tumor size into treatment groups. […] Mice were weighed and tumors measured with calipers twice weekly. […]"}, "[2]": {"system": "H3K27me3/2/1, histone H3, EZH2, SUZ12, EED in lymphoma cell lines", "test": "Western blot of H3K27 methylation status and PRC2 components following GSK126 treatment", "format": "cell-based, human", "protocol": "Cell lines were obtained from the American Type Culture Collection or the Deutsche Sammlung von Mikroorganismen und Zellbulturen and maintained in the recommended cell culture media at 37° C. in 5% CO2. Cells were lysed with radioimmunoprecipitation (RIPA) buffer (ThermoScientific) and western blot analysis was conducted as previously described (41). Antibodies were obtained as previously described (41) or from Cell Signaling Technology (SUZ12, 3737), or Santa Cruz Biotechnology (EED, sc-28701).\nCells (2×10^5/well) were seeded into six-well tissue culture plates in the appropriate cell culture media 24 hours before treatment."}, "[3]": {"system": "H3K27me3 in DLBCL cell lines", "test": "ELISA-based quantitation of H3K27me3 in treated cells", "details": "Homo sapiens, EZH2 WT and mutant DLBCL cell lines, 48 hours", "protocol": "Biochemical assays utilized the 5-member PRC2 complex (human Flag-EZH2, EED, SUZ12, AEBP2, RbAp48) containing either WT or mutant EZH2, [^3H-]SAM and the indicated peptide substrate; reactions were incubated for 30 minutes. Global histone modification levels were determined by ELISA or western blot methods using antibodies specific for total histone H3, H3K27me1, H3K27me2, or H3K27me3. Cell proliferation and Caspase-3/7 activity were assessed using CellTiter-Glo and Caspase-Glo 3/7 (Promega), respectively. Gene expression profiling was conducted using Affymetrix Human Genome U133 Plus 2.0 microarrays. Differentially-expressed probe sets were determined by fitting the data to a linear model using the limma statistical package (http://www.bioconductor.org) and carrying out pair-wise contrasts of treated versus control. […] H3K27me3 ChIP reads were aligned using Bowtie (56). […] A custom PERL script was utilized to quantify the average basal H3K27me3 ChIP-seq tag density across gene sets. […]\nFollowing tissue homogenization, tumor tissue lysates were prepared using the Epigentek Histone Extraction kit (OP-0006). […] Luminata Forte substrate (Millipore) was added 5 minutes before chemiluminescence was quantified with an EnVision multi-label plate reader (PerkinElmer). H3K27me3 levels were normalized to total H3 values and IC50 values were determined using a 4-parameter curve fit."}}}
{"smiles": "CC[C@H](C)n1cc(C)c2c(C(=O)NCc3c(C)cc(C)[nH]c3=O)cc(-c3ccc(N4CCNCC4)nc3)cc21", "note": "[GSK126]", "values": [{"measurement": "gene expression in tumor xenografts", "setting": "[1]", "result": "increased"}, {"measurement": "global H3K27me3 in tumor xenografts", "setting": "[1]", "result": "decreased"}, {"measurement": "Total histone H3 and PRC2 components", "setting": "[2]; 25 nM-2 μM, 72 hrs", "result": "not affected"}, {"measurement": "H3K27me1 level", "setting": "[2]; 72 hours", "result": "only weakly reduced at the highest inhibitor concentration"}, {"measurement": "IC50", "setting": "[3]", "result": "10 to 252", "unit": "nM"}]}
